Patent US7019144B2, “1,2,4-Triazole derivative, method for preparing the same, and pharmaceutical composition containing the same” (CJ Corp., priority 2002, dated 2006)

How the values were obtained:
COX-1 = molecular target: T1, COX-1 (Homo sapiens, UniProt P23219); assay: Assay for the COX-1 inhibitory activity using U-937 (PGE2 inhibition); type: cell-based; conditions: for inhibition at 1 µM: 1 μM test compound, U-937 human lymphoma cells, PGE2 inhibition vs DMSO, read-out: Cyclooxygenase (COX) Inhibition (%) COX-1 (1 μM); for COX-1 inhibitory activity in comparison with the reference (Valdecoxib): 1 μM, U-937, comparison in words
T1 construct: host or cells: U-937 human lymphoma cells
T1 sequence (P23219 24-599): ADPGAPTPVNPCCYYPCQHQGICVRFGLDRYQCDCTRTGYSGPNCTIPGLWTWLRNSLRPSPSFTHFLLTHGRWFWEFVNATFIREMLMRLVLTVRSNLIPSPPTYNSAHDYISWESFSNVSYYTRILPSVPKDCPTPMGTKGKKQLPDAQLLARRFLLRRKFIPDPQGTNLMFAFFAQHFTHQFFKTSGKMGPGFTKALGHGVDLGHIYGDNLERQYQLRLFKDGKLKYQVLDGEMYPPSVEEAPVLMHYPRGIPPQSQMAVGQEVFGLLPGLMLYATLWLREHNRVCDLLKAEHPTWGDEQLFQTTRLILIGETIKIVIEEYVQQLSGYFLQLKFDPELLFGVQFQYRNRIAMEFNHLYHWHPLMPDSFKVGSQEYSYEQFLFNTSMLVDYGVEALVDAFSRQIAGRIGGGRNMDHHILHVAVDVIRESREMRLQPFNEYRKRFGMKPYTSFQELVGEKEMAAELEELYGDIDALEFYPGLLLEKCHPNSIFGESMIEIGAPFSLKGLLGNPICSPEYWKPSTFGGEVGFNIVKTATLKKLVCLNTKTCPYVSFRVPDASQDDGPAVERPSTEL
Description: The collected cells were diluted with HBSS (×1, Hank's balanced salt solution) to a concentration of 1×10^6 cells/ml. 1 ml of the dilute cell solution was placed into each well of 12-well plates. 5 μl of 1 μM solution of a test compound in DMSO and 5 μl of DMSO as a control were added to the wells. The wells were incubated in CO2 incubator at 37° C. for 15 minutes. Separately, 10 mM stock solution of arachidonic acid in ethanol was diluted ten times in ethanol to prepare 1 mM solution of arachidonic acid. Arachidonic acid acts as a substrate. 10 μl of the 1 mM solution of arachidonic acid was added to each well and incubated at CO2 incubator at 37° C. for 30 minutes. The cell solution of each well was placed in a centrifuge test tube and centrifuged at 10,000 rpm at 4° C. for 5 minutes. The concentration of PGE2 in the collected cells and the supernatant was quantified by means of a monoclonal kit (Cayman Chemicals). The percentages of PGE2 inhibition in a group of the test compound-treated cells in relation to a group of the DMSO-treated cells were calculated. Based on the calculated values, the COX-1 inhibitory activities were evaluated.
(§1) The percentages of the COX inhibition were calculated according to the following equation: % Inhibition=(concentration of PGE2 in test compound-untreated sample−concentration of PGE2 in test compound-treated sample)/(concentration of PGE2 in test compound-untreated sample)×100

COX-2 = molecular target: T2, COX-2 (Mus musculus, UniProt Q05769); assay: Assay for the COX-2 inhibitory activity using RAW 264.7 cell line (PGE2, interferon γ/LPS induced); type: cell-based; conditions: for COX-2 inhibitory activity in comparison with the reference (Valdecoxib): 10 nM, RAW 264.7, comparison in words; for inhibition at 0.01 µM: RAW264.7, 10 nM test compound, RAW 264.7 cells, interferon γ + LPS, 18 hours, PGE2, read-out: Cyclooxygenase (COX) Inhibition (%) COX-2 (10 nM); for selectivity (COX-2 over COX-1): judged from Table 1, in words
T2 construct: host or cells: RAW 264.7 cells, aspirin-pretreated, then induced with interferon gamma and LPS
T2 sequence (Q05769 18-604): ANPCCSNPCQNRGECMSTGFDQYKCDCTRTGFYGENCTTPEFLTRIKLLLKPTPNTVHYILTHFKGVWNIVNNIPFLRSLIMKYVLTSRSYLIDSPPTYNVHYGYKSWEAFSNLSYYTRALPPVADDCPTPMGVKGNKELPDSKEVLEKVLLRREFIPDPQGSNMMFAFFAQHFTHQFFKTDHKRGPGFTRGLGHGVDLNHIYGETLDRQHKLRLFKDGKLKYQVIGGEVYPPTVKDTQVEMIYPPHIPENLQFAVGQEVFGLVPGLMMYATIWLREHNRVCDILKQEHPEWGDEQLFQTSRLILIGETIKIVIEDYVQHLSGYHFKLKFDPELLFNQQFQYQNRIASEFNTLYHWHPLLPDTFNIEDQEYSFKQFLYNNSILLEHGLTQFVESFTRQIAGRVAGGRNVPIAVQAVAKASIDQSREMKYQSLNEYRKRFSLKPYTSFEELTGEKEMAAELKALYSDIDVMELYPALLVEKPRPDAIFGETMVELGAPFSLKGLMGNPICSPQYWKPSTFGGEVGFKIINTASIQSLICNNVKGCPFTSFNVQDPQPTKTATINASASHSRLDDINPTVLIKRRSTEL
Description: Each well was treated with 250 μM of aspirin and incubated at 37° C. for 2 hours. […] Then, each well was treated with interferon γ (100 units/ml) and Iipopolysaccharide (LPS, 100 ng/ml) and incubated for 18 hours. The culture media were transferred to another test tubes. The concentration of PGE2 was quantified by means of the EIA kit (Cayman Chemicals).
as §1

[1] = tested on: carrageenan-induced paw edema; assay: Carrageenan-induced paw edema test in rats; type: in vivo; conditions: for Inhibitory effect (% inhibition): oral administration, foot swelling 3 hours after carrageenan injection vs control
Description: 2. Carrageenan-induced Paw Edema Test in Rats
The day before the test date, rats were selected in each group so that the average body weight was as close as possible, and the rats were fasted by feed withdrawal prior to the test. At the test date, the rats were orally administered with the test compounds and a control material. After 1 hour, the volume (V0h) of a predetermined portion of the left hind foot of the rats was measured with a plethysmometer. 100 μl of 1% carrageenan solution was subcutaneously injected to the left hind foot of the rats using a syringe with 1 ml capacity. Three hours after the injection of the carrageenan, the volume (V3h) of the predetermined portion of the foot was again measured. The foot swelling variation […] in a group of test compound-treated rats was compared with that of a group of control material-treated rats. With the supposition of 0% inhibition by the control (control material-treated rats), the inhibition percentage of edema of each test compound was determined.

Compound | inhibition at 1 µM (COX-1) | COX-1 inhibitory activity in comparison with the reference (Valdecoxib) (COX-1) | COX-2 inhibitory activity in comparison with the reference (Valdecoxib) (COX-2) | inhibition at 0.01 µM (COX-2) | selectivity (COX-2 over COX-1) (COX-2) | Inhibitory effect (% inhibition) [1] | COX inhibitory effect (paw edema % inhibition) in comparison with Celecoxib ([1]; oral, comparison in words)
COc1ccc(-c2nc(C(F)(F)F)nn2-c2ccc(S(N)(=O)=O)cc2)cc1 [Example 43, 4-[5-(4-methoxyphenyl)-3-trifluoromethyl-[1,2,4]triazol-1-yl]benzene suffonamide] | 34.6% |  |  | 32.3% |  | 39.1 % inhibition | remarkably improved
COc1ccc2c(c1)c(CC(=O)O)c(C)n2C(=O)c1ccc(Cl)cc1 [Indomethacine, reference compound] |  |  |  |  |  | 40.1 % inhibition | 
CS(=O)(=O)c1ccc(-n2nc(C(F)(F)F)nc2-c2ccc(Br)cc2)nn1 [Example 49, 3-[5-(4-bromophenyl)-3-trifluoromethyl-[1,2,4]triazol-1-yl]-6-methanesulfonyl pyridazine] | 14.6% |  |  | 3.21% |  |  | 
CS(=O)(=O)c1ccc(-n2nc(C(F)(F)F)nc2-c2ccc(Br)cc2)cn1 [Example 47, 2-methanesulfonyl-5-[5-(4-bromophenyl)-3-trifluoromethyl-[1,2,4]triazol-1-yl]pyridine] | 21.9% |  |  | 4.26% |  |  | 
COc1ccc(-c2nc(C(F)(F)F)nn2-c2ccc(S(C)(=O)=O)nn2)cc1 [Example 50, 3-[5-(4-methoxyphenyl)-3-trifluoromethyl-[1.2.4]triazol-1-yl]-6-methanesulfonyl pyridazine] | 10.6% |  |  | 4.32% |  |  | 
COc1ccc(-c2nc(C(F)(F)F)nn2-c2ccc(S(C)(=O)=O)cc2)c(OC)c1 [Example 32, 5-(2,4-dimethoxyphenyl)-1-(4-methanesulfonylphenyl)-3-trifluoromethyl-1H-[1,2,4]triazole] | 19.9% |  |  | 12.6% |  |  | 
COc1ccc(-c2nc(C(F)(F)F)nn2-c2ccc(S(C)(=O)=O)nc2)cc1 [Example 48, 2-methanesulfonyl-5-[5-(4-methoxyphenyl)-3-trifluoromethyl-[1,2,4]triazol-1-yl]pyridine] | 28.8% |  |  | 5.63% |  |  | 
Cc1ccc(-c2nc(C(F)(F)F)nn2-c2ccc(S(N)(=O)=O)cc2)cc1 [Example 42, 4-(5-p-tolyl-3-trifluoromethyl-[1,2,4]triazol-1-yl)benzenesulfonamide] | 38% |  |  | 12.1% |  |  | 
Cc1ccc(-c2cc(C(F)(F)F)nn2-c2ccc(S(N)(=O)=O)cc2)cc1 [Celecoxib, reference compound] |  |  |  |  |  | 23.9 % inhibition | 

The next lines start with results.

inhibition at 1 µM (COX-1) | COX-1 inhibitory activity in comparison with the reference (Valdecoxib) (COX-1) | COX-2 inhibitory activity in comparison with the reference (Valdecoxib) (COX-2) | inhibition at 0.01 µM (COX-2) | selectivity (COX-2 over COX-1) (COX-2) | Compound | Inhibitory effect (% inhibition) [1] | COX inhibitory effect (paw edema % inhibition) in comparison with Celecoxib ([1]; oral, comparison in words)
18.7% | the same as or lower | remarkably enhanced | 33.7% | excellent selectivities | CS(=O)(=O)c1ccc(-n2nc(C(F)(F)F)nc2-c2ccc3c(c2)OCO3)cc1 [Example 40, 5-benzo[1,3]dioxol-5-yl-1-(4-methanesulfonylphenyl)-3-trifluoromethyl-1H-[1,2,4]triazole] |  | 
18.6% |  |  | 7.32% |  | CS(=O)(=O)c1ccc(-n2nc(C(F)(F)F)nc2-c2cccc(Cl)c2)cc1 [Example 30, 5-(3-chlorophenyl)-1-(4-methanesulfonylphenyl)-3-trifluoromethyl-1H-[1,2,4]triazole] |  | 
16.5% |  |  | 5.66% |  | CS(=O)(=O)c1ccc(-n2nc(C(F)(F)F)nc2-c2cccc(C(F)(F)F)c2)cc1 [Example 31, 5-(3-trifluoromethylphenyl)-1-(4-methanesulfonylphenyl)-3-trifluoromethyl-1H-[1,2,4]triazole] |  | 
10.1% | the same as or lower | remarkably enhanced | 28.6% | excellent selectivities | COc1ccc(-c2nc(C(F)(F)F)nn2-c2ccc(S(C)(=O)=O)cc2)cc1 [Example 28, 1-(4-methanesulfonylphenyl)-5-(4-methoxyphenyl)-3-trifluoromethyl-1H-[1,2,4]triazole] | 23.3 % inhibition | 
16.7% |  |  | 8.88% |  | CS(=O)(=O)c1ccc(-n2nc(C(F)(F)F)nc2-c2ccncc2)cc1 [Example 41, 4-[2-(4-methanesulfonylphenyl)-5-trifluoromethyl-2H-[1,2,4]triazol-3-yl]pyridine] |  | 
21.6% |  |  | 6.23% |  | CC(C)(C)c1ccc(-c2nc(C(F)(F)F)nn2-c2ccc(S(C)(=O)=O)cc2)cc1 [Example 36, 5-(4-t-butylphenyl)-1-(4-methanesulfonylphenyl)-3-trifluoromethyl-1H-[1,2,4]triazole] |  | 
16.7% |  |  | 6.23% |  | CS(=O)(=O)c1ccc(-n2nc(C(F)(F)F)nc2-c2cccc(Br)c2)cc1 [Example 29, 5-(3-bromophenyl)-1-(4-methanesulfonylphenyl)-3-trifluoromethyl-1H-[1,2,4]triazole] |  | 
12.5% | the same as or lower | remarkably enhanced | 32.6% | excellent selectivities | COc1ccc(-c2nc(C(F)(F)F)nn2-c2ccc(S(C)(=O)=O)cc2)cc1Cl [Example 39, 5-(3-chloro-4-methoxyphenyl)-1-(4-methanesulfonylphenyl)-3-trifluoromethyl-1H-[1,2,4]triazole] |  | 
29.2% |  |  | 7.62% |  | CS(=O)(=O)c1ccc(-n2nc(C(F)(F)F)nc2-c2ccccc2)cc1 [Example 25, 1-(4-methanesulfonylphenyl)-5-phenyl-3-trifluoromethyl-1H-[1,2,4]triazole] |  | 
19.5% |  |  | 5.95% |  | CS(=O)(=O)c1ccc(-n2nc(C(F)(F)F)nc2-c2ccc([N+](=O)[O-])cc2Cl)cc1 [Example 38, 5-(4-nitro-2-chlorophenyl)-1-(4-methanesulfonylphenyl)-3-trifluoromethyl-1H-[1,2,4]triazole] |  | 
23.7% |  |  | 8.92% |  | CS(=O)(=O)c1ccc(-n2nc(C(F)(F)F)nc2-c2ccc(C#N)cc2)cc1 [Example 37, 5-(4-cyanophenyl)-1-(4-methanesulfonylphenyl)-3-trifluoromethyl-1H-[1,2,4]triazole] |  | 
19.2% |  |  | 19.2% |  | CS(=O)(=O)c1ccc(-n2nc(C(F)(F)F)nc2/C=C/c2ccccc2)cc1 [Example 33, 5-styryl-1-(4-methanesulfonylphenyl)-3-trifluoromethyl-1H-[1,2,4]triazole] |  | 
38.8% |  |  | 10.5% |  | CS(=O)(=O)c1ccc(-n2nc(C(F)(F)F)nc2-c2ccc(Cl)cc2)cc1 [Example 26, 5-(4-chlorophenyl)-1-(4-methanesulfonylphenyl)-3-trifluoromethyl-1H-[1,2,4]triazole] |  | 
